According to PMC10779143, “Collagen-like Osteoclast-Associated Receptor (OSCAR)-Binding Motifs Show a Co-Stimulatory Effect on Osteoclastogenesis in a Peptide Hydrogel System” (International Journal of Molecular Sciences, 2023):
Entries after “also recorded” stand apart in the source; their conditions may differ. Where a SMILES comes first, the peptide text is derived from it. [ ]: non-standard residue; d: D form. Hyp = O=C(O)[C@@H]1C[C@@H](O)CN1

Key:
[1] = CD analysis of secondary structure (collagen triple helix) and refolding; type: physicochemical; conditions: CD Buffer pH 7.4
Procedure: Secondary structures of OP1_Hyp, OP1_Pro, and OCol1 were analysed by circular dichroism (CD) spectroscopy using a Jasco® J-810 spectropolarimeter (UCI, Irvine, CA, USA) equipped with a Peltier temperature controller. OP1_Hyp and OP1_Pro were resuspended up to a concentration of 0.5 mg/mL in a CD transparent buffer (10 mM K2HPO4, 10 mM KH2PO4, 150 mM KF, pH 7.4, CD Buffer) [15] and kept for 24 h at 4 °C to allow for the formation of the collagen triple helical structure. OCol1 was exchanged to CD Buffer using a PD 10 disposable desalting column (GE17-0851-01, Merck, Feltham, UK). Briefly, the column was equilibrated with five column volumes of CD Buffer before the addition of OCol1 to the storage buffer. After flow-through collection, 0.5 mL fractions were collected into 1.5 mL Eppendorf tubes. The OCol1 elution fractions were quickly analysed by CD, and the one with the highest concentration (0.2 mg/mL) was used. CD spectra were measured between 190 nm and 260 nm at 10 °C using a 1 mm path-length CD-matched quartz cuvette (Starna Scientific, Ilford, UK). Data were collected every 0.2 nm with a 1 nm bandwidth. Spectral baselines were corrected by subtracting the spectrum of CD Buffer (blank) collected under the same conditions. Additionally, the thermal stability of OP1_Hyp, OP1_Pro, and OCol1 was analysed. Thermal transition profiles were recorded between 10 °C and 60 °C (OP1_Hyp and OP1_Pro) or 70 °C (OCol1) at 222 nm with a data pitch of 0.2 °C, a bandwidth of 1 nm, a detector response time of 32 s, and a temperature slope of 1 °C/min. Samples were cooled back to 10 °C after the different transitions had been completed, and final spectra were recorded at that temperature. Ellipticity in millidegrees was converted to mean residue molar ellipticity Θ (degree cm^2 dmol^−1) by normalising for the number of residues on each peptide or protein [23].

[2] = tested on: Raw 264.7 cells; assay: TRAP staining / osteoclast morphology of Raw 264.7 cells on peptide-coated tissue culture plastic; type: cell-based
Procedure: (§1) Raw 264.7 cells were cultured and passaged as previously described. Cell adhesion to OP1_Hyp and OP1_Pro was assessed as shown by Barrow et al.. Briefly, 48-well plates were coated with 10 µg/mL of OSCAR-binding peptides overnight at 4 °C. The excess peptide was then removed by washing with PBS before adding 1% BSA to block non-specific binding sites for 1 h at 25 °C. Raw 264.7 cells were then resuspended at a concentration of 2 × 10^5 cells/mL and added to the well. Cells were cultured with different concentrations of human RANKL (hRANKL) (catalogue number: 310-01 from Peprotech, London, UK) (0–100 ng/mL) for up to 5 days to assess the contribution of the OSCAR-binding peptides OP1_Hyp and OP1_Pro to the differentiation of Raw 264.7 cells to mature OCs.
After 5 days of post-culture, Raw 264.7 cells were fixed in 4% PFA for 15 min at room temperature. TRAP was stained following the manufacturer’s protocol and evaluated by light microscopy (ThermoFisher, Swindon, UK). Multinucleated TRAP+ cells containing more than three nuclei were scored as mature OCs.

[3] = tested on: TRAP gene expression, Raw 264.7 cells; assay: qRT-PCR TRAP gene expression, Raw 264.7 cells on peptide-coated TCP; type: cell-based
Procedure: as §1
(§2) Gene expression of OC markers was evaluated as previously described. A StepOne™ Real-Time PCR System (Applied Biosystems, Warrington, UK) was used, with TaqMan probes and a universal PCR Master Mix (Life Technologies, Carlsbad, CA, USA, 4304437) in a total volume of 10 µL. The TaqMan probes for TRAP and OSCAR were Mm00475698_m1 and Mm01338227_g1, respectively. Data were analysed using the 2^−∆Ct method and normalised to the endogenous housekeeping gene GAPDH (Mm99999915_g1). Experiments were performed in triplicate.

[4] = tested on: OSCAR gene expression, Raw 264.7 cells; assay: qRT-PCR OSCAR gene expression, Raw 264.7 cells on peptide-coated TCP; type: cell-based; conditions: n = 3
Procedure: as §1, §2

[5] = tested on: Raw 264.7 cells; assay: F-actin staining / osteoclast-like morphology and differentiation of Raw 264.7 cells on hydrogels; type: cell-based; conditions: 10 ng/mL hRANKL
[6] = tested on: TRAP gene expression, Raw 264.7 cells; assay: qRT-PCR TRAP gene expression, Raw 264.7 cells on hydrogels; type: cell-based; conditions: incorporated in FF/S/RGDH hydrogel, 10 ng/mL hRANKL
Description: (§3) Fmoc-FF/S (Fmoc-diphenylalanine/serine, 1:1 molar ratio) and Fmoc-FF/S/RGD (1:0.5:0.5 molar ratio) peptides were provided by Biogelx Ltd., Edinburgh, UK. Hydroxyapatite (Hap) nanopowder (formula: Ca10(PO4)6(OH)2, with average particle size <200 nm) was purchased from Sigma-Aldrich (Dorset, UK, product code: 677418) and used as received. Hydrogels made up of Fmoc-based peptides and hydroxyapatite were fabricated as described previously. Hap-decorated Fmoc-FF/S/RGD hydrogels (FF/S/RGDH) were tested in combination with OP1_Hyp, OP1_Pro, and OCol1 to evaluate the contribution of OSCAR as a co-stimulatory pathway for OCP differentiation. […]
(§4) The day after hydrogel fabrication, 2 mL of Raw 264.7 cells (4 × 10^5 cells/mL) were seeded on top of FF/S/RGDH hydrogels containing the collagen-like OSCAR-binding peptides (OP1_Hyp, OP1_Pro) or recombinant collagen-like protein (OCol1). […] After 7 days of culture, cell viability on the peptide- or protein-modified FF/S/RGDH hydrogels was evaluated by using a LIVE/DEAD assay (ThermoFisher Scientific, Swindon, UK). […] After 30 min of incubation, cells were washed 3 times in PBS and imaged using a Nikon Eclipse 50i fluorescence microscope (Tokyo, Japan) (emission wavelengths: green channel for live cells: 515 nm; red channel for dead cells: 635 nm; excitation wavelength: 495 nm). […]
(§5) Gene expression of OC markers was evaluated as previously described. […]

[7] = tested on: OSCAR gene expression, Raw 264.7 cells; assay: qRT-PCR OSCAR gene expression, Raw 264.7 cells on hydrogels; type: cell-based; conditions: 10 ng/mL hRANKL, relative to GAPDH, n = 3
Description: as §3, §4, §5

CC(=O)NCC(=O)N1CCC[C@H]1C(=O)N1C[C@H](O)C[C@H]1C(=O)NCC(=O)N1CCC[C@H]1C(=O)N1C[C@H](O)C[C@H]1C(=O)NCC(=O)N1CCC[C@H]1C(=O)N1C[C@H](O)C[C@H]1C(=O)NCC(=O)N[C@@H](C)C(=O)N1C[C@H](O)C[C@H]1C(=O)NCC(=O)N1CCC[C@H]1C(=O)N[C@@H](C)C(=O)NCC(=O)N[C@@H](Cc1ccccc1)C(=O)N[C@@H](C)C(=O)NCC(=O)N1CCC[C@H]1C(=O)N1C[C@H](O)C[C@H]1C(=O)NCC(=O)N1CCC[C@H]1C(=O)N1C[C@H](O)C[C@H]1C(=O)NCC(=O)N1CCC[C@H]1C(=O)N1C[C@H](O)C[C@H]1C(N)=O [OP1_Hyp] (Ac-GP[Hyp]GP[Hyp]GP[Hyp]GA[Hyp]GPAGFAGP[Hyp]GP[Hyp]GP[Hyp]-NH2)
Triple helical features (positive ellipticity band) at 70 °C ([1]; CD at 70 °C): disappeared from the CD spectra | Secondary structure by CD ([1]; CD spectra 190-260 nm at 10 °C, 0.5 mg/mL peptides, 0.2 mg/mL OCol1): a band of positive ellipticity with a maximum at ~220 nm and a deep band of negative ellipticity with a minimum at ~198 nm, previously associated with the typical conformation of the collagen triple helix | Refolding of the triple helix after denaturation ([1]; cooling from 70 °C to 10 °C, approximately 30 min, 210 µM peptides, 12 µM OCol1): partial recovery of the collagen structure | Osteoclast features / TRAP staining, 10 ng/mL hRANKL ([2]; 5 days on coated TCP, 10 ng/mL hRANKL (suboptimal)): more cells showing OC-like features such as multinucleation; also recorded: still showed signs of osteoclastogenesis | Osteoclast features / TRAP staining, 100 ng/mL hRANKL ([2]; 5 days on coated TCP, 100 ng/mL hRANKL, peptide effect masked by high hRANKL): typical OC features | Differentiation without hRANKL (TRAP staining) ([2]; 5 days on coated TCP, no hRANKL added): not able to trigger any differentiation on their own | OC differentiation effect, lower suboptimal hRANKL, comparison of peptides ([2]; coated TCP, lower, suboptimal hRANKL): much more evident for OP1_Hyp compared to OP1_Pro | Overall effect on differentiation of Raw 264.7 cells on coated TCP ([2]; used as substrate on TCP): positive effect on differentiation | TRAP expression, 100 ng/mL hRANKL ([3]; 5 days vs day 1, relative to GAPDH, n = 3): significantly higher after 5 days | TRAP expression, 10 ng/mL hRANKL ([3]; 5 days, relative to GAPDH, n = 3, lower than with 100 ng/mL hRANKL): TRAP expression was lower | TRAP expression, 0-1 ng/mL hRANKL ([3]; five days, relative to GAPDH, n = 3): either expressed at lower amounts or did not change significantly after five days of culture | OSCAR expression, 100 ng/mL hRANKL ([4]; 5 days vs day 1, relative to GAPDH): significantly higher compared to day 1 | OSCAR expression, 10 ng/mL hRANKL ([4]; 5 days, relative to GAPDH): still significantly higher | OSCAR expression, 0-1 ng/mL hRANKL ([4]; five days, relative to GAPDH): either expressed at lower amounts or did not change significantly after five days of culture | Differentiation of Raw 264.7 cells to OCs on collagen-modified hydrogels ([5]; 7 days, incorporated in FF/S/RGDH hydrogel): the effect was more evident with OP1_Hyp; also recorded: positive effect on osteoclastogenesis | OC-like features, improvement vs unmodified hydrogels ([5]; hydrogels): greater bioactivity (i.e., higher nuclei/cell distribution, increased cell diameter) | TRAP expression, day 3 to day 7 (comparison with literature) [6]: increased significantly between day 3 and day 7 of culture | OSCAR expression change, day 3 to day 7 [7]: increased significantly between day 3 and day 7 of culture
